Assay results from ChEMBL document CHEMBL1777794, “Optimization of the physicochemical and pharmacokinetic attributes in a 6-azauracil series of P2X7 receptor antagonists leading to the discovery of the clinical candidate CE-224,535” (Bioorg Med Chem Lett, 2011).
Active and inactive are the calls of the source. The calls are words filed in the database; no cut-off is given here.

Tests used:
[1] = biological target: T1, P2X purinoceptor 7 (Homo sapiens) (UniProt Q99572); assay: Antagonist activity at P2X7 receptor in human LPS-stimulated monocytes assessed as inhibition of ATP-induced IL1-beta release at 5 uM by ELISA; format: functional, cell-based
T1 sequence (whole entry): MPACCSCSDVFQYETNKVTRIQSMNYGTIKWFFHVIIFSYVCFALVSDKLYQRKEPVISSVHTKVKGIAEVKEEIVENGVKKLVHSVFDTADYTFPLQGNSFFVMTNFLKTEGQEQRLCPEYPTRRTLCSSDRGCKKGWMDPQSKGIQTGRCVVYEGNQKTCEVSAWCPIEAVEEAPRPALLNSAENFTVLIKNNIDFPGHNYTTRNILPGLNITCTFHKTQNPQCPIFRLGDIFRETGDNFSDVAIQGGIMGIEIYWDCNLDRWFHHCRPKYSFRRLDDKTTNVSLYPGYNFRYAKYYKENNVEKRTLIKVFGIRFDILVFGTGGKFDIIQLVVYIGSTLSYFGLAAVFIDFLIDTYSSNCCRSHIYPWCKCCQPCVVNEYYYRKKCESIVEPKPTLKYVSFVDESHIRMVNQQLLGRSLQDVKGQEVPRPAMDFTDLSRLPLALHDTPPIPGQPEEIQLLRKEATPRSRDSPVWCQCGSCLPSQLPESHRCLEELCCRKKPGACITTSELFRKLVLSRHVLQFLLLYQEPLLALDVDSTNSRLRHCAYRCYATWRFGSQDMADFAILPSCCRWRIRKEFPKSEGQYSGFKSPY

P2X purinoceptor 7 [2] = biological target: T2, P2X purinoceptor 7 (Homo sapiens, UniProt Q99572); assay: Antagonist activity at P2X7 receptor in human LPS-stimulated monocytes assessed as inhibition of ATP-induced IL1-beta release by ELISA; format: functional, cell-based
T2 sequence (Q99572 whole entry): T1 sequence (whole entry)

P2X purinoceptor 7 [3] = biological target: T2, P2X purinoceptor 7; assay: (§1) Antagonist activity at P2X7 receptor in human LPS-stimulated monocytes assessed as inhibition of ATP-induced IL1-beta release by ELISA in presence of human blood; format: functional, cell-based
[4] = biological target: T1, P2X purinoceptor 7 (Homo sapiens); assay: as §1; format: functional, cell-based
[5] = Cmax in monkey; format: ADME, organism-based, Macaca mulatta; conditions: rhesus monkey, in vivo
[6] = Plasma clearance in monkey; conditions: rhesus monkey
[7] = Half life in dog; format: ADME, organism-based, Canis lupus familiaris; conditions: in vivo
[8] = Cmax in rat at 5 mg/kg, po; format: ADME, organism-based; parameters: dose 5 mg/kg, route oral; conditions: in vivo
[9] = Half life in monkey; format: ADME, organism-based, Macaca mulatta; conditions: rhesus monkey, in vivo
P2X purinoceptor 7 [10] = biological target: T2, P2X purinoceptor 7; assay: Antagonist activity at P2X7 receptor expressed in HEK293 cells assessed as inhibition of ATP-induced YOPRO-1 uptake; format: functional, cell-based
[11] = Oral bioavailability in rat at 5 mg/kg; format: ADME, organism-based; conditions: in vivo
[12] = (§2) Fraction unbound in human plasma; format: ADME, cell-free
[13] = Oral bioavailability in monkey; format: ADME, organism-based, Macaca mulatta; conditions: rhesus monkey, in vivo
[14] = Volume of distribution at steady state in dog; format: ADME, organism-based, Canis lupus familiaris; conditions: in vivo, read-out: Vdss
[15] = Half life in rat; format: ADME, organism-based; conditions: in vivo
[16] = Cmax in dog; format: ADME, organism-based, Canis lupus familiaris; conditions: in vivo
in vivo [17] = conditions: dog, plasma
[18] = Oral bioavailability in dog; format: ADME, organism-based, Canis lupus familiaris; conditions: in vivo
in vivo [19] = conditions: rat, plasma
[20] = Volume of distribution at steady state in monkey; format: ADME, organism-based, Macaca mulatta; conditions: rhesus monkey, in vivo; read-out: Vdss
[21] = Volume of distribution at steady state in rat; format: ADME, organism-based; conditions: in vivo, read-out: Vdss
[22] = biological target: T1, P2X purinoceptor 7 (Homo sapiens); assay: Antagonist activity at P2X7 receptor in human monocytes assessed as inhibition of LPS/ATP-induced IL1-beta release at 1 uM by ELISA; format: functional, cell-based
[23] = Apparent permeability from apical to basolateral side of human Caco2 cells; format: ADME, cell-based; conditions: Caco-2
Plasma = assay: as §2; format: ADME, cell-free
[24] = Apparent permeability from basolateral to apical side of human Caco2 cells; format: ADME, cell-based; conditions: Caco-2
Hepatocyte = assay: Metabolic stability in human hepatocytes assessed as compound turnover; format: ADME, cell-based
[25] = Plasma protein binding in human; format: ADME, cell-free; conditions: read-out: PPB
Liver microsomes = assay: Metabolic stability in human liver microsomes assessed as compound turnover; format: ADME, Microsome
[26] = biological target: Voltage-gated inwardly rectifying potassium channel KCNH2 (Homo sapiens, UniProt Q12809); assay: Inhibition of human ERG at 1 uM
Cytochrome P450 2C19 = Cytochrome P450 2C19 (Homo sapiens, UniProt P33261); assay: Inhibition of human CYP2C19; format: ADME
Cytochrome P450 1A2 = biological target: T3, Cytochrome P450 1A2 (Homo sapiens, UniProt P05177); assay: Inhibition of human CYP1A2; format: ADME
T3 sequence (P05177 whole entry): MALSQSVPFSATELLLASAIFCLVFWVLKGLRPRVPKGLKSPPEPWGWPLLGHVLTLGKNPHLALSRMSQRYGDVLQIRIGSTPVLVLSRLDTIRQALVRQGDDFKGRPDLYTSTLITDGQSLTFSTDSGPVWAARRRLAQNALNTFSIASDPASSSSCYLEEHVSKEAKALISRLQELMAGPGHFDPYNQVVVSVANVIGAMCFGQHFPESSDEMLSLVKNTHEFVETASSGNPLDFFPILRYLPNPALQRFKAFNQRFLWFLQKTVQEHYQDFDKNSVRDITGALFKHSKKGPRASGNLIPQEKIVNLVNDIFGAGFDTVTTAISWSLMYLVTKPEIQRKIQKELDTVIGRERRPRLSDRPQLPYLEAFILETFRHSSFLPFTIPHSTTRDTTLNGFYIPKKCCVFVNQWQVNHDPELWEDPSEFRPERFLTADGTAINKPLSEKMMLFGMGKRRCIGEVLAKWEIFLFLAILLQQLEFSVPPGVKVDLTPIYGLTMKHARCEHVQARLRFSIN

Rattus norvegicus = assay: Toxicity in rat at 500 mg/kg, po qd for 4 days; format: organism-based; parameters: dose 500 mg/kg, route oral; conditions: in vivo, 96 h
Cytochrome P450 2D6 = Cytochrome P450 2D6 (Homo sapiens, UniProt P10635); assay: Inhibition of human CYP2D6; format: ADME
[27] = biological target: T4, P2X purinoceptor 7 (Mus musculus) (UniProt Q9Z1M0); assay: Antagonist activity at P2X7 receptor in mouse LPS-stimulated peritoneal macrophages assessed as inhibition of ATP-induced IL1-beta release at 10 uM by ELISA; format: functional
T4 sequence (whole entry): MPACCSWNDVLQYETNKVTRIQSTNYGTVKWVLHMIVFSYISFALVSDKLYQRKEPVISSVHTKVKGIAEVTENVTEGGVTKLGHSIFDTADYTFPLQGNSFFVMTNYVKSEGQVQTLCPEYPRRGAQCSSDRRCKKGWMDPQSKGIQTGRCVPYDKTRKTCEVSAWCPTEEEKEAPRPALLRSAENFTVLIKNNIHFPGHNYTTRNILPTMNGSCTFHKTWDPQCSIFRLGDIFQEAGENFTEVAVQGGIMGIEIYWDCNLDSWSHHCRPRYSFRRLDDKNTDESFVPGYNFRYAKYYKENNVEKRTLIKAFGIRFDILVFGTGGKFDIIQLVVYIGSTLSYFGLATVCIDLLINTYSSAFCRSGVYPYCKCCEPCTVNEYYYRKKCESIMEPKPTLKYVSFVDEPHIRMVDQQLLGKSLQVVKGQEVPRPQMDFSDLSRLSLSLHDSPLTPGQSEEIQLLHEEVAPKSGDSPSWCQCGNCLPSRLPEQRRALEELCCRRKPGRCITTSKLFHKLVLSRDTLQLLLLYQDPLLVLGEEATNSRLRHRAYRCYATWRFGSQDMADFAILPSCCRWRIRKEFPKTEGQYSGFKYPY

Cytochrome P450 2C9 = Cytochrome P450 2C9 (Homo sapiens, UniProt P11712); assay: Inhibition of human CYP2C9; format: ADME
Cytochrome P450 3A4 = Cytochrome P450 3A4 (Homo sapiens, UniProt P08684); assay: Inhibition of human CYP3A4; format: ADME
[28] = Trough plasma concentration in rheumatoid arthritis patient at 500 mg BID for 12 weeks; format: ADME; conditions: human, read-out: Cmin
Salmonella typhimurium = assay: Mutagenic activity in Salmonella Typhimurium by Ames assay; format: toxicity, organism-based; conditions: salmonella enterica subsp. enterica serovar typhimurium

Chain of Cytochrome P450 3A4 (P08684 whole entry): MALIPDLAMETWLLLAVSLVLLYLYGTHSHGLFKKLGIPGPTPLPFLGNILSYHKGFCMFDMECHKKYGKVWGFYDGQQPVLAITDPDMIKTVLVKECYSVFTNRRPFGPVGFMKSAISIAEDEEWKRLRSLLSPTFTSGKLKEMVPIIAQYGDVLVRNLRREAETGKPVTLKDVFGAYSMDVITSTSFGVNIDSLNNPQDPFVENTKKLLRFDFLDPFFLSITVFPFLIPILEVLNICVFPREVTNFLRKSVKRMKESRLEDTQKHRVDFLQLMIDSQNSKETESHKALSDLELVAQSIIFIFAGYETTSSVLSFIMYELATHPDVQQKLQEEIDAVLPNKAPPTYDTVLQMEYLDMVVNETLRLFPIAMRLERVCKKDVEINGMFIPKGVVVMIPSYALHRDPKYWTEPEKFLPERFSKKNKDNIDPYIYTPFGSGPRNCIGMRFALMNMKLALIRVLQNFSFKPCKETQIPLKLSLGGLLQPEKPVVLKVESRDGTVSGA
Chain of Cytochrome P450 2C9 (P11712 whole entry): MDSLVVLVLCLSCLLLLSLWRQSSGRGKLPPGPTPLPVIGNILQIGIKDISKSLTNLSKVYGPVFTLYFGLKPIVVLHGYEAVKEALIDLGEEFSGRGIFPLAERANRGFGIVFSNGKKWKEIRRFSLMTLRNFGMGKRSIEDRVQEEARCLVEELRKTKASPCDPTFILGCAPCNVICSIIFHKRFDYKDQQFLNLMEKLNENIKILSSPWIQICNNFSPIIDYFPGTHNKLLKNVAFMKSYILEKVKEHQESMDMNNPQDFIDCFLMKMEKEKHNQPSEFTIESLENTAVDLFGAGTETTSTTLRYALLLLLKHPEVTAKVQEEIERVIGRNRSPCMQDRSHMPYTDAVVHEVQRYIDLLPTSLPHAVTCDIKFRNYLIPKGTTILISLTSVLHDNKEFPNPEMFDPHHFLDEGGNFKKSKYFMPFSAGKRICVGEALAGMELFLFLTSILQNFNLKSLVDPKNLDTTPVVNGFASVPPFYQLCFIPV
Chain of Cytochrome P450 2D6 (P10635 whole entry): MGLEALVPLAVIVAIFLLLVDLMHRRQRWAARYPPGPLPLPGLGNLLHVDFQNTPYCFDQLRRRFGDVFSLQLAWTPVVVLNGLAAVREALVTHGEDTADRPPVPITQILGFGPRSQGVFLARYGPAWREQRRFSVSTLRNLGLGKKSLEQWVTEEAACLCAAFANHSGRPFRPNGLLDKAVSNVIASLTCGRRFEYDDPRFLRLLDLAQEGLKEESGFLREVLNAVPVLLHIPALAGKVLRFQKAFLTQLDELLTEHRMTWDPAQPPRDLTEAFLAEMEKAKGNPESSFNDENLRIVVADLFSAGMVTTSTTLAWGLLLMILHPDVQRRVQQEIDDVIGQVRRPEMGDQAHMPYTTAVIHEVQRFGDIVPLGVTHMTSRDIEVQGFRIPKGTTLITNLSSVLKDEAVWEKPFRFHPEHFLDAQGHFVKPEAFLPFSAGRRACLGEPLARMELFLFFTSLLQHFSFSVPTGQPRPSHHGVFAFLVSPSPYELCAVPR
Chain of Cytochrome P450 2C19 (P33261 whole entry): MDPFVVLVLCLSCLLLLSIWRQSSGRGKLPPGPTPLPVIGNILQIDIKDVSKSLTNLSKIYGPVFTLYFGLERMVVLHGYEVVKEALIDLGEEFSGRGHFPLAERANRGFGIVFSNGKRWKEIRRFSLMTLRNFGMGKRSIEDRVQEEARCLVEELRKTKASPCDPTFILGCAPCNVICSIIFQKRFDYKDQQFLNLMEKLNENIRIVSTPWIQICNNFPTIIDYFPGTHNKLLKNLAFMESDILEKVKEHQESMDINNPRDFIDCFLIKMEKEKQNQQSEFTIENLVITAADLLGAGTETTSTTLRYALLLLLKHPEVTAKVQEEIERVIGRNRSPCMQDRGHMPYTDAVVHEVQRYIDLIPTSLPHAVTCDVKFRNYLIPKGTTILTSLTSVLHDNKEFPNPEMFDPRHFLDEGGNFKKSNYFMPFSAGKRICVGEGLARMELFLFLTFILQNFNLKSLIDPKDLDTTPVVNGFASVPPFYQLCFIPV
Chain of Voltage-gated inwardly rectifying potassium channel KCNH2 (Q12809 whole entry): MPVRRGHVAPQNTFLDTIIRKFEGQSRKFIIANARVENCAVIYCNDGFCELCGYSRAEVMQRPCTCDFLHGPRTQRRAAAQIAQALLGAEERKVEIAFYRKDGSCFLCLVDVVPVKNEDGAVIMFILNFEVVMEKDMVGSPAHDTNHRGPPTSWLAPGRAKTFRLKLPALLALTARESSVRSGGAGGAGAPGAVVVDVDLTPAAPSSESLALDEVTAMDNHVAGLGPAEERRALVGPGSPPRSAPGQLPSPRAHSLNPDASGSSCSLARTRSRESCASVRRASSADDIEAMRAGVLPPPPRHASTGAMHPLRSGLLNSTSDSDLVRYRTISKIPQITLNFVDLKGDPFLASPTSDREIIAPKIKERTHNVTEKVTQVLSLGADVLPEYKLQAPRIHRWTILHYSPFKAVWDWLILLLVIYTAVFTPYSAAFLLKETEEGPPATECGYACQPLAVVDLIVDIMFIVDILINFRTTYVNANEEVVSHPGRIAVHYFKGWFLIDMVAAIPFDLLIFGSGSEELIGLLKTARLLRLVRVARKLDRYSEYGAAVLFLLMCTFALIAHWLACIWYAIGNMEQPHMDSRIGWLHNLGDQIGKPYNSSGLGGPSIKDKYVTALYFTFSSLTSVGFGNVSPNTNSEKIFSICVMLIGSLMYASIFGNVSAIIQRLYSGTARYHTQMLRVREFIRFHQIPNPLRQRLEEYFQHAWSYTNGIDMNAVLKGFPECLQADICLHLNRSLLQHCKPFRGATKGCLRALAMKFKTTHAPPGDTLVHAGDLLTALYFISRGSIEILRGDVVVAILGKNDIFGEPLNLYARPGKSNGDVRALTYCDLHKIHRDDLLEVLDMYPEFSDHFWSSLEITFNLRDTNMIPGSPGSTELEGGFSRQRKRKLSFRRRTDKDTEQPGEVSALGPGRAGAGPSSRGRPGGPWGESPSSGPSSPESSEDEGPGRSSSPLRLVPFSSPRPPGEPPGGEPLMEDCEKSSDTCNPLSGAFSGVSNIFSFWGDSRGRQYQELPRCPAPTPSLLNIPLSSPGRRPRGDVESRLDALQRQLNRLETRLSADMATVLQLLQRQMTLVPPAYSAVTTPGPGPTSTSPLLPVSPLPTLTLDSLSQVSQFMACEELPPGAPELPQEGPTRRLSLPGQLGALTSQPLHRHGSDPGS

`CCCCC(CC)COC(=O)c1cc(-n2ncc(=O)[nH]c2=O)ccc1Cl` (stereo unspecified) showed an inhibition [1] of 19%.
Compound `CCCCNC(=O)c1cc(-n2ncc(=O)[nH]c2=O)ccc1Cl` has an inhibition [1] of 0%.
Compound `CCCOCCNC(=O)c1cc(-n2ncc(=O)[nH]c2=O)ccc1Cl` has an IC50 (P2X purinoceptor 7 [2]) of over 5000 nM.
In the case of `O=C(NCC1(O)CCCCCC1)c1cc(-n2ncc(=O)[nH]c2=O)ccc1Cl`, the IC50 (P2X purinoceptor 7 [3]) is reported as 447 nM, the IC90 [4] is reported as 1000 nM and the Cmax [5] is reported as 600 ng/mL. For the same compound, the clearance [6] was 21 mL/min/kg, the half-life [7] was 3.8 h and the Cmax [8] was 1300 ng/mL. For the same compound, the half-life [9] was 3.4 h, the IC50 (P2X purinoceptor 7 [10]) was 15 nM and the bioavailability [11] was 75%. The fraction unbound [12] was 0.18, the bioavailability [13] was 72% and the Vd [14] was 0.6 L/kg. The half-life [15] was 3.2 h, the Cmax [16] was 7400 ng/mL and the clearance (in vivo [17]) was 3.8 mL/min/kg. For the same compound, the bioavailability [18] was 84%, the clearance (in vivo [19]) was 20 mL/min/kg and the Vd [20] was 1.5 L/kg. The Vd [21] was 8.5 L/kg and the IC50 (P2X purinoceptor 7 [2]) was 83 nM.
`CCC(CC)CNC(=O)c1cc(-n2ncc(=O)[nH]c2=O)ccc1Cl` showed an IC50 (P2X purinoceptor 7 [2]) of 1100 nM.
For `N#Cc1ccc(-n2ncc(=O)[nH]c2=O)cc1C(=O)NCC1(O)CCCCCC1`, the inhibition [22] was 0%.
For `COCCn1c(=O)cnn(-c2ccc(Cl)c(C(=O)NCC3(O)CCCCCC3)c2)c1=O`, the IC50 (P2X purinoceptor 7 [3]) was 71 nM and the IC50 (P2X purinoceptor 7 [2]) was 19 nM.
Work on `CCOCCCNC(=O)c1cc(-n2ncc(=O)[nH]c2=O)ccc1Cl` yielded an inhibition [1] of 2%.
`O=C(NCCc1ccccc1Cl)c1cc(-n2ncc(=O)[nH]c2=O)ccc1Cl` gave a Papp A→B [23] of 10 ×10⁻⁶ cm/s, an IC50 (P2X purinoceptor 7 [3]) of over 10000 nM and an IC90 [4] of over 10000 nM. For the same compound, the Cmax [8] was 2000 ng/mL, the IC50 (P2X purinoceptor 7 [10]) was 300 nM and the Fu (Plasma) was 0.005. For the same compound, the Papp B→A [24] was 21 ×10⁻⁶ cm/s, the Stability (Hepatocyte) was “Stable” and the fraction unbound [25] was under 0.005. The Stability (Liver microsomes) was “Stable”, the clearance (in vivo [19]) was 9.5 mL/min/kg and the IC50 (P2X purinoceptor 7 [2]) was 290 nM.
Compound `Cc1ccc(-n2ncc(=O)[nH]c2=O)cc1C(=O)NCC1(O)CCCCCC1` has an IC50 (P2X purinoceptor 7 [2]) of 700 nM.
In the case of `COC[C@H](O)Cn1c(=O)cnn(-c2ccc(Cl)c(C(=O)NCC3(O)CCCCCC3)c2)c1=O` [CE-224535], the IC50 (P2X purinoceptor 7 [3]) is reported as 0.8 nM, the IC90 [4] is reported as 4.7 nM and the Cmax [5] is reported as 550 ng/mL. For the same compound, the “inhibition (INH)” value [26] was “Not Active”, the half-life [7] was 0.46 h and the Cmax [8] was 210 ng/mL. The half-life [9] was 0.77 h, the IC50 (Cytochrome P450 2C19) was over 30000 nM and the IC50 (P2X purinoceptor 7 [10]) was 4 nM. The IC50 (Cytochrome P450 1A2) was over 30000 nM, the bioavailability [11] was 2.6% and the Activity (Rattus norvegicus) was “Non-toxic”. It also gave a fraction unbound [12] of 0.27, a bioavailability [13] of 22% and a Vd [14] of 0.61 L/kg. The IC50 (Cytochrome P450 2D6) was over 30000 nM, the half-life [15] was 2.4 h and the inhibition [27] was “Active”. The IC50 (Cytochrome P450 2C9) was over 30000 nM, the Cmax [16] was 3500 ng/mL and the IC50 (Cytochrome P450 3A4) was over 30000 nM. For the same compound, the concentration at 2016 h [28] was 519 nM, the Activity (Salmonella typhimurium) was “Non-toxic” and the bioavailability [18] was 59%. It also gave a Vd [20] of 0.68 L/kg, a Vd [21] of 7.6 L/kg and an IC50 (P2X purinoceptor 7 [2]) of 1.4 nM.
In the case of `CCCCCNC(=O)c1cc(-n2ncc(=O)[nH]c2=O)ccc1Cl`, the IC50 (P2X purinoceptor 7 [2]) is reported as 2800 nM.
Work on `O=C(NCCc1ccccn1)c1cc(-n2ncc(=O)[nH]c2=O)ccc1Cl` yielded an inhibition [1] of 15%.
`CCCCC(CC)CN(C)C(=O)c1cc(-n2ncc(=O)[nH]c2=O)ccc1Cl` (stereo unspecified) showed an inhibition [1] of 0%.
